Laboratory results: the kinase profiling compilation of Christmann-Franck et al. (2016)
“And” between values parts separate entries of the source, which are not always exact repeats. Identical values can stand only once.

Key:
Experiment in all cases: Caliper, Mobility shift assay off-chip
[1] = biological target: AKT1 (human) (UniProt P31749)
[2] = biological target: ALK (human) (UniProt Q9UM73)
[3] = biological target: BRSK2 (human) (UniProt Q8IWQ3)
[4] = biological target: BTK (human) (UniProt Q06187)
[5] = biological target: CDK2 CCNA2 (human) (UniProt P24941+P20248)
[6] = biological target: CHEK1 (human) (UniProt O14757)
[7] = biological target: CSK (human) (UniProt P41240)
[8] = biological target: EGFR (human) (UniProt P00533)
[9] = biological target: EPHA2 (human) (UniProt P29317)
[10] = biological target: EPHA4 (human) (UniProt P54764)
[11] = biological target: FGFR1 (human) (UniProt P11362)
[12] = biological target: FGFR3 (human) (UniProt P22607)
[13] = biological target: IGF1R (human) (UniProt P08069)
[14] = biological target: IKBKB (human) (UniProt O14920)
[15] = biological target: KDR (human) (UniProt P35968)
[16] = biological target: KIT (human) (UniProt P10721)
[17] = biological target: MAP3K7 (human) (UniProt O43318)
[18] = biological target: MAPK11 (human) (UniProt Q15759)
[19] = biological target: MAPK12 (human) (UniProt P53778)
[20] = biological target: MAPK13 (human) (UniProt O15264)
[21] = biological target: MAPK14 (human) (UniProt Q16539)
[22] = biological target: MAPKAPK2 (human) (UniProt P49137)
[23] = biological target: MAPKAPK5 (human) (UniProt Q8IW41)
[24] = biological target: NEK2 (human) (UniProt P51955)
[25] = biological target: NEK6 (human) (UniProt Q9HC98)
[26] = biological target: PAK4 (human) (UniProt O96013)
[27] = biological target: PIM1 (human) (UniProt P11309)
[28] = biological target: PIM2 (human) (UniProt Q9P1W9)
[29] = biological target: PLK3 (human) (UniProt Q9H4B4)
[30] = biological target: PRKCA (human) (UniProt P17252)
[31] = biological target: PRKCG (human) (UniProt P05129)
[32] = biological target: PRKCI (human) (UniProt P41743)
[33] = biological target: RAF1 (human) (UniProt P04049)
[34] = biological target: RIPK2 (human) (UniProt O43353)
[35] = biological target: ROCK1 (human) (UniProt Q13464)
[36] = biological target: RPS6KA1 KD1 KD2 (human) (UniProt Q15418)
[37] = biological target: RPS6KA5 KD1 KD2 (human) (UniProt O75582)
[38] = biological target: RPS6KB1 (human) (UniProt P23443)
[39] = biological target: SRC (human) (UniProt P12931)
[40] = biological target: TEK (human) (UniProt Q02763)
[41] = biological target: ZAP70 (human) (UniProt P43403)

BRSK2 (human), sequence (Q8IWQ3 whole entry, looked up): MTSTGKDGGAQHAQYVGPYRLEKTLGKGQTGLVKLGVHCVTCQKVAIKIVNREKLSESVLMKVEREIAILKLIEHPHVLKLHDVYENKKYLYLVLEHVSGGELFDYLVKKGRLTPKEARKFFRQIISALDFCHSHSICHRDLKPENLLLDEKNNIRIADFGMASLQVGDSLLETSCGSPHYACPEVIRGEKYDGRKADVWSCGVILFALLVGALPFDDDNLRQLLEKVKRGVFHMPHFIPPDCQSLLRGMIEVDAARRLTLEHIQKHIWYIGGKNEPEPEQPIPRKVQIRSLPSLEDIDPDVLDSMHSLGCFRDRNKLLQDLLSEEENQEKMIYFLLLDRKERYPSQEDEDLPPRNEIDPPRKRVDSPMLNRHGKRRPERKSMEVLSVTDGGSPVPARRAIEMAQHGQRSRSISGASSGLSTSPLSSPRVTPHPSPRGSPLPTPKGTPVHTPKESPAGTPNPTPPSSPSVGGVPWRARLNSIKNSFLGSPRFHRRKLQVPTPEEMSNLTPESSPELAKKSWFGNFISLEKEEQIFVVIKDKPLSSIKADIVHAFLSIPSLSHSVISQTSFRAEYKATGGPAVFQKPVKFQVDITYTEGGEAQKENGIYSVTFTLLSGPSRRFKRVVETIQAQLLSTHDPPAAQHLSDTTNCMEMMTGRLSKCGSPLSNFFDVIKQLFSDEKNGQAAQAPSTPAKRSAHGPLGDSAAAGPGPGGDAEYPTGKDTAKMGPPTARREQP
RAF1 (human), sequence (P04049 whole entry, looked up): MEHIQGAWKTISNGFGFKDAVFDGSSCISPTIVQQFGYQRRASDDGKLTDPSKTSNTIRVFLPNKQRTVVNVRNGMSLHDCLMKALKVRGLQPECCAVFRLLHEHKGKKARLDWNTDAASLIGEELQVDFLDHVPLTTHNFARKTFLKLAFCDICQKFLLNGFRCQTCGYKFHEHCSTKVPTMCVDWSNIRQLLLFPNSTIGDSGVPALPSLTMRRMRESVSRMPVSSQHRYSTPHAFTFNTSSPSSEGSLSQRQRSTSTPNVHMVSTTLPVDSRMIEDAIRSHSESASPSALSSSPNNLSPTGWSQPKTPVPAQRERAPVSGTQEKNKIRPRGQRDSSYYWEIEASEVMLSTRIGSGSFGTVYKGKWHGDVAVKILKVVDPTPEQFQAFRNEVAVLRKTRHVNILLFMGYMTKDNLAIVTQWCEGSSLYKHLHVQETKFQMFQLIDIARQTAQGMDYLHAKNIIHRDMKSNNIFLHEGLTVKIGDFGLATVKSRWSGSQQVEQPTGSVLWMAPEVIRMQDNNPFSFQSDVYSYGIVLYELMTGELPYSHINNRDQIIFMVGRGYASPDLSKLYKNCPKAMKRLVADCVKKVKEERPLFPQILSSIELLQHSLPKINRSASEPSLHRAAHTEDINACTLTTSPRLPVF
RIPK2 (human), sequence (O43353 whole entry, looked up): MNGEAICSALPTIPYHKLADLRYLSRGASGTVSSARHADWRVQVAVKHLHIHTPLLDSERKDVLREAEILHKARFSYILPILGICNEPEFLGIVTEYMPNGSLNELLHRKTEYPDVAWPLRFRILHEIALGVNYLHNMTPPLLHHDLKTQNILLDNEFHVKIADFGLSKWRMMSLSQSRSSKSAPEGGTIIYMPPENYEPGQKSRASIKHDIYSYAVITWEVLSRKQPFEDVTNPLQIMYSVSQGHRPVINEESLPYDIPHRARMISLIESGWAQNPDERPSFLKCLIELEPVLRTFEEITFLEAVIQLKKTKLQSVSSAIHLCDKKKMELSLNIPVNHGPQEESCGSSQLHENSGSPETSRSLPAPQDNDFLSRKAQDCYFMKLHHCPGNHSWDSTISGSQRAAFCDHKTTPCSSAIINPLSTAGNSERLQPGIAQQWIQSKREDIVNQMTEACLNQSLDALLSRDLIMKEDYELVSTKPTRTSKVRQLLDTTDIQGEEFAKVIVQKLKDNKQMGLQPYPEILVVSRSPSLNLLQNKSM
MAPKAPK5 (human), sequence (Q8IW41 whole entry, looked up): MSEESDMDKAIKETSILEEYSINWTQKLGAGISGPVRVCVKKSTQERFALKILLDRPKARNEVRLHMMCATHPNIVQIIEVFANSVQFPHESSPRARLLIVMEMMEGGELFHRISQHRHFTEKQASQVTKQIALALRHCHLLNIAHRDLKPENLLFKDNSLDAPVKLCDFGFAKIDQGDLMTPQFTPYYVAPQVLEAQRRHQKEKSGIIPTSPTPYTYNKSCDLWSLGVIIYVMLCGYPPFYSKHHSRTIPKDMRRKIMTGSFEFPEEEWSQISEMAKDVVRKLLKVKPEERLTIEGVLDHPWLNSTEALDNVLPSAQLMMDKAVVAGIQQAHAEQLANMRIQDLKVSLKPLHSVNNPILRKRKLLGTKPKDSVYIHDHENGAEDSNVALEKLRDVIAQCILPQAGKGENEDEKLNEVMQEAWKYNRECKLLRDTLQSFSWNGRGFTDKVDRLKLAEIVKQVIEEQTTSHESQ
KDR (human), sequence (P35968 whole entry, looked up): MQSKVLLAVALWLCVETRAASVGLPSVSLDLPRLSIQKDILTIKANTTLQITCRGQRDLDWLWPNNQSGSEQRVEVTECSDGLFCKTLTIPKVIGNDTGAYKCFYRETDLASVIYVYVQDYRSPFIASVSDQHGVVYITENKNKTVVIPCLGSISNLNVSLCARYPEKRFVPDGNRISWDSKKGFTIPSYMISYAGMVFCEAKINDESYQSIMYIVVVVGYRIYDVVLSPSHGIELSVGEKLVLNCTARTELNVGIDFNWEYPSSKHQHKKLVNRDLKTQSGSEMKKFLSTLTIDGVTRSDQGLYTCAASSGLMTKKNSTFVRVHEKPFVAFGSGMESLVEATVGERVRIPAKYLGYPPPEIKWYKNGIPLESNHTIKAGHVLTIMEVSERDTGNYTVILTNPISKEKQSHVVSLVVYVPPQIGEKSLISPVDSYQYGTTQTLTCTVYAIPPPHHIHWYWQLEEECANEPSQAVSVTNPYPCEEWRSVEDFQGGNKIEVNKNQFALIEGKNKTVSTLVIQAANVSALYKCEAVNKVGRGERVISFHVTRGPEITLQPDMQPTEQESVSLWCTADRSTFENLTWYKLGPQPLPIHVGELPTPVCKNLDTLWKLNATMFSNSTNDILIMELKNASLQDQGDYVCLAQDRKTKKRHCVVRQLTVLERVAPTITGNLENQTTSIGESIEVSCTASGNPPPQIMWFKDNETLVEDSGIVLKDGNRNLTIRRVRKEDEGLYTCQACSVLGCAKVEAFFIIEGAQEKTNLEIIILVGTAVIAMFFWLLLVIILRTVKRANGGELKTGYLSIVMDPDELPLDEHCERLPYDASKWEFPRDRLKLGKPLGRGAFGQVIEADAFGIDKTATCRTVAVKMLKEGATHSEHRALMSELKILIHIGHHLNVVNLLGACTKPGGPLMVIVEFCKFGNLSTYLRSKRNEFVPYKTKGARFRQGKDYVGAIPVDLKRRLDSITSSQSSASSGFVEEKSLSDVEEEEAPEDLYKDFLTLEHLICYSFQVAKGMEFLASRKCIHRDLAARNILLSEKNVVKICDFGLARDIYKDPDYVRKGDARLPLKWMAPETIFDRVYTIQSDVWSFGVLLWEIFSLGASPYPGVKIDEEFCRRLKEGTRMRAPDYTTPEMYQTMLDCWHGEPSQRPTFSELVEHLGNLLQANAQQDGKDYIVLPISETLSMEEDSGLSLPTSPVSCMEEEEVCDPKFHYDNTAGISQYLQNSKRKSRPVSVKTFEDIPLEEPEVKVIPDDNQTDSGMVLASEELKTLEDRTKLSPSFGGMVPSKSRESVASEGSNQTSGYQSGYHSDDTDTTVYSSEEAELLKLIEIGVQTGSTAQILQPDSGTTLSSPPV
MAPK12 (human), sequence (P53778 whole entry, looked up): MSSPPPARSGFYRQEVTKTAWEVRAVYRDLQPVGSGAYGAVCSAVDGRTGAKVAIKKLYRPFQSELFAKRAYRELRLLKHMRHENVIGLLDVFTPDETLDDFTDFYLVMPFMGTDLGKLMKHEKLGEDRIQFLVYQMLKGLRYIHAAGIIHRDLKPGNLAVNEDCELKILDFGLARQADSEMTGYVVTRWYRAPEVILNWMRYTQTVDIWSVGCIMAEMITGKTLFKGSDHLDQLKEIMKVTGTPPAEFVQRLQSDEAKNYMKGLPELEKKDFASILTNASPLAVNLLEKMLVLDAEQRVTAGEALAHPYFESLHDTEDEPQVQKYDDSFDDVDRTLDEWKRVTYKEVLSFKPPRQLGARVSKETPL

COc1ccc(C#Cc2ccc3ncc4ncn(-c5ccc(CCN)cc5)c4c3c2)cc1
residual activity ([1]; compound 10.0 µM): 25%
residual activity ([2]; compound 10.0 µM): 42%
residual activity ([3]; compound 10.0 µM): 57%
residual activity ([4]; compound 10.0 µM): 75%
residual activity ([5]; compound 10.0 µM): 118%
residual activity ([6]; compound 10.0 µM): 75%
residual activity ([7]; compound 10.0 µM): 82%
residual activity ([8]; compound 10.0 µM): 71%
residual activity ([9]; compound 10.0 µM): 95%
residual activity ([10]; compound 10.0 µM): 77%
residual activity ([11]; compound 10.0 µM): 4%
residual activity ([12]; compound 10.0 µM): 25%
residual activity ([13]; compound 10.0 µM): 66%
residual activity ([14]; compound 10.0 µM): 39%
residual activity ([15]; compound 10.0 µM): 50%
residual activity ([16]; compound 10.0 µM): 71%
residual activity ([17]; compound 10.0 µM): 83%
residual activity ([18]; compound 10.0 µM): 81%
residual activity ([19]; compound 10.0 µM): 85%
residual activity ([20]; compound 10.0 µM): 43%
residual activity ([21]; compound 10.0 µM): 72%
residual activity ([22]; compound 10.0 µM): 78%
residual activity ([23]; compound 10.0 µM): 50%
residual activity ([24]; compound 10.0 µM): 80%
residual activity ([25]; compound 10.0 µM): 109%
residual activity ([26]; compound 10.0 µM): 106%
residual activity ([27]; compound 10.0 µM): 3%
residual activity ([28]; compound 10.0 µM): 24%
residual activity ([29]; compound 10.0 µM): 110%
residual activity ([30]; compound 10.0 µM): 94%
residual activity ([31]; compound 10.0 µM): 88%
residual activity ([32]; compound 10.0 µM): 107%
residual activity ([33]; compound 10.0 µM): 94%
residual activity ([34]; compound 10.0 µM): 78%
residual activity ([35]; compound 10.0 µM): 46%
residual activity ([36]; compound 10.0 µM): 13%
residual activity ([37]; compound 10.0 µM): 39%
residual activity ([38]; compound 10.0 µM): 0%
residual activity ([39]; compound 10.0 µM): 14%
residual activity ([40]; compound 10.0 µM): 5%
residual activity ([41]; compound 10.0 µM): 99%

C[C@@H](Nc1nc2c(C#CC3CC3)c[nH]c(=O)c2c2cc(-c3cn[nH]c3)ccc12)C(C)(C)C
residual activity ([1]; compound 1.0 µM): 98%
residual activity ([2]; compound 1.0 µM): 77%
residual activity ([3]; compound 1.0 µM): 15%
residual activity ([4]; compound 1.0 µM): 79%
residual activity ([5]; compound 1.0 µM): 104%
residual activity ([6]; compound 1.0 µM): 46%
residual activity ([7]; compound 1.0 µM): 75%
residual activity ([8]; compound 1.0 µM): 116%
residual activity ([9]; compound 1.0 µM): 131%
residual activity ([10]; compound 1.0 µM): 103%
residual activity ([11]; compound 1.0 µM): 29%
residual activity ([12]; compound 1.0 µM): 60%
residual activity ([13]; compound 1.0 µM): 85%
residual activity ([14]; compound 1.0 µM): 92%
residual activity ([15]; compound 1.0 µM): 42%
residual activity ([16]; compound 1.0 µM): 109%
residual activity ([17]; compound 1.0 µM): 90%
residual activity ([18]; compound 1.0 µM): 110%
residual activity ([19]; compound 1.0 µM): 106%
residual activity ([20]; compound 1.0 µM): 108%
residual activity ([21]; compound 1.0 µM): 107%
residual activity ([22]; compound 1.0 µM): 115%
residual activity ([23]; compound 1.0 µM): 75%
residual activity ([24]; compound 1.0 µM): 116%
residual activity ([25]; compound 1.0 µM): 110%
residual activity ([26]; compound 1.0 µM): 95%
residual activity ([27]; compound 1.0 µM): 107%
residual activity ([28]; compound 1.0 µM): 99%
residual activity ([29]; compound 1.0 µM): 85%
residual activity ([30]; compound 1.0 µM): 108%
residual activity ([31]; compound 1.0 µM): 95%
residual activity ([32]; compound 1.0 µM): 98%
residual activity ([33]; compound 1.0 µM): 107%
residual activity ([34]; compound 1.0 µM): 51%
residual activity ([35]; compound 1.0 µM): 102%
residual activity ([36]; compound 1.0 µM): 20%
residual activity ([37]; compound 1.0 µM): 83%
residual activity ([38]; compound 1.0 µM): 45%
residual activity ([39]; compound 1.0 µM): 83% and 87%
residual activity ([40]; compound 1.0 µM): 109%
residual activity ([41]; compound 1.0 µM): 104%

CC(C)(C)c1nc2c3ccc(F)cc3c3c(=O)[nH]ccc3c2[nH]1
residual activity ([1]; compound 10.0 µM): 39%
residual activity ([2]; compound 10.0 µM): 26%
residual activity ([3]; compound 10.0 µM): 1%
residual activity ([4]; compound 10.0 µM): 83%
residual activity ([5]; compound 10.0 µM): 53%
residual activity ([6]; compound 10.0 µM): 10%
residual activity ([7]; compound 10.0 µM): 101%
residual activity ([8]; compound 10.0 µM): 75%
residual activity ([9]; compound 10.0 µM): 96%
residual activity ([10]; compound 10.0 µM): 101%
residual activity ([11]; compound 10.0 µM): 32%
residual activity ([12]; compound 10.0 µM): 30%
residual activity ([13]; compound 10.0 µM): 61%
residual activity ([14]; compound 10.0 µM): 15%
residual activity ([15]; compound 10.0 µM): 92%
residual activity ([16]; compound 10.0 µM): 40%
residual activity ([17]; compound 10.0 µM): 12%
residual activity ([18]; compound 10.0 µM): 25%
residual activity ([19]; compound 10.0 µM): 46%
residual activity ([20]; compound 10.0 µM): 46%
residual activity ([21]; compound 10.0 µM): 51%
residual activity ([22]; compound 10.0 µM): 17%
residual activity ([23]; compound 10.0 µM): 17%
residual activity ([24]; compound 10.0 µM): 96%
residual activity ([25]; compound 10.0 µM): 48%
residual activity ([26]; compound 10.0 µM): 78%
residual activity ([27]; compound 10.0 µM): 49%
residual activity ([28]; compound 10.0 µM): 36%
residual activity ([29]; compound 10.0 µM): 54%
residual activity ([30]; compound 10.0 µM): 8%
residual activity ([31]; compound 10.0 µM): 21%
residual activity ([32]; compound 10.0 µM): 73%
residual activity ([33]; compound 10.0 µM): 128%
residual activity ([34]; compound 10.0 µM): 20%
residual activity ([35]; compound 10.0 µM): 26%
residual activity ([36]; compound 10.0 µM): 68%
residual activity ([37]; compound 10.0 µM): 25%
residual activity ([38]; compound 10.0 µM): 17%
residual activity ([39]; compound 10.0 µM): 94%
residual activity ([40]; compound 10.0 µM): 105%
residual activity ([41]; compound 10.0 µM): 117%
